The structures appear in SMILES notation. pKi: −log10 of the molar value. Some results are limits rather than exact numbers.

By pKi is commonly meant the Ki on a negative log10 scale, so that one unit is a factor of ten. Read a low pKi as a large Ki.

The target of this assay is NS3 (Hepatitis C virus, UniProt A3EZJ3). Briefly: Inhibition of Hepatitis C virus NS3 serine protease. Further details: species or system Hepacivirus hominis.
NS3, sequence (A3EZJ3 whole entry): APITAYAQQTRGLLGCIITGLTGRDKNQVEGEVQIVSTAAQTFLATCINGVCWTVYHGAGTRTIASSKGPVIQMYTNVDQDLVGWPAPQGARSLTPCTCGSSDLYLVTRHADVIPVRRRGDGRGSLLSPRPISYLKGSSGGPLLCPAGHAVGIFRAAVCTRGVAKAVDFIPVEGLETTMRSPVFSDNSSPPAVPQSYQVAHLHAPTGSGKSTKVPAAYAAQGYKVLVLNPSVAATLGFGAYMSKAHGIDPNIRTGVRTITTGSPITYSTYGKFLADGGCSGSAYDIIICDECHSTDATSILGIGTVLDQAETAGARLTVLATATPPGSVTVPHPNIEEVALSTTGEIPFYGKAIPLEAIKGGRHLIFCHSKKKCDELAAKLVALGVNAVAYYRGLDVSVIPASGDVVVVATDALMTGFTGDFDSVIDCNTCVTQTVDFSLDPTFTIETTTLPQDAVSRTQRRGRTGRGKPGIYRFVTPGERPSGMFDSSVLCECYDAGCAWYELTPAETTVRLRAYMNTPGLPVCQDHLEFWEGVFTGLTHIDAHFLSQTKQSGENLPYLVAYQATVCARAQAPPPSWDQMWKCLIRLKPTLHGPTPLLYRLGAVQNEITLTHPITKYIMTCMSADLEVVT
For the compound `C=CCNC(=O)C(=O)[C@H](CCC)NC(=O)[C@@H]1CN(CC(=O)OCC)C(=O)N1C(=O)[C@@H](NC(=O)[C@@H](NC(=O)[C@H](CCC(=O)OC(C)(C)C)NC(=O)[C@H](CCC(=O)OC(C)(C)C)NC(C)=O)C(C)C)C(C)C`, the pKi is 4.52.

In the case of `C=CCOC(=O)CNC(=O)C(=O)[C@H](CCC)NC(=O)[C@@H]1CN(Cc2ccc(Cl)c(Cl)c2)C(=O)N1C(=O)[C@@H](NC(=O)[C@@H](NC(=O)[C@H](CCC(=O)O)NC(=O)[C@H](CCC(=O)O)NC(C)=O)C(C)C)C(C)C`, the pKi was 6.51.

Consider `C=CCOC(=O)CNC(=O)C(=O)C(CCC)NC(=O)[C@@H]1CN(Cc2ccccc2)C(=O)N1C(=O)[C@@H](NC(=O)[C@@H](NC(=O)[C@H](CCC(=O)OC(C)(C)C)NC(=O)[C@H](CCC(=O)OC(C)(C)C)NC(C)=O)C(C)C)C(C)C` (stereo partly specified), for which the pKi was less than 4.00.

In turn, `C=CCNC(=O)C(=O)[C@H](CCC)NC(=O)[C@@H]1CNC(=O)N1C(=O)[C@@H](NC(=O)[C@@H](NC(=O)[C@H](CCC(=O)OC(C)(C)C)NC(=O)[C@H](CCC(=O)OC(C)(C)C)NC(C)=O)C(C)C)C(C)C` showed a negative logarithm of the Ki (pKi) of 4.16.

`C=CCNC(=O)C(=O)[C@H](CCC)NC(=O)[C@@H]1CN(Cc2ccccc2)C(=O)N1C(=O)[C@@H](NC(=O)[C@@H](NC(=O)[C@H](CCC(=O)OC(C)(C)C)NC(=O)[C@H](CCC(=O)OC(C)(C)C)NC(C)=O)C(C)C)C(C)C` had a pKi of 4.21.

`C=CCOC(=O)CNC(=O)C(=O)[C@H](CCC)NC(=O)[C@@H]1CN(Cc2ccccc2)C(=O)N1C(=O)[C@@H](NC(=O)[C@@H](NC(=O)[C@H](CCC(=O)O)NC(=O)[C@H](CCC(=O)O)NC(C)=O)C(C)C)C(C)C` showed a pKi of 6.00.

`C=CCOC(=O)CNC(=O)C(=O)C(CCC)NC(=O)[C@@H]1CN(Cc2ccc(Cl)c(Cl)c2)C(=O)N1C(=O)[C@@H](NC(=O)[C@@H](NC(=O)[C@H](CCC(=O)OC(C)(C)C)NC(=O)[C@H](CCC(=O)OC(C)(C)C)NC(C)=O)C(C)C)C(C)C` (stereo partly specified) gave a negative logarithm of the Ki (pKi) of less than 4.00.

In turn, `C=CCNC(=O)C(=O)C(CCC)NC(=O)[C@@H]1CN(CC(=O)OCC)C(=O)N1C(=O)[C@@H](NC(=O)OC(C)(C)C)C(C)C` (stereo partly specified) had a pKi of 3.82.

For `C=CCNC(=O)C(=O)[C@H](CCC)NC(=O)[C@@H]1CN(CC(=O)OCC)C(=O)N1C(=O)[C@@H](NC(=O)[C@@H](NC(=O)[C@H](CCC(=O)O)NC(=O)[C@H](CCC(=O)O)NC(C)=O)C(C)C)C(C)C`, the pKi was 5.40.

The compound `C=CCNC(=O)C(=O)[C@H](CCC)NC(=O)[C@@H]1CNC(=O)N1C(=O)[C@@H](NC(=O)[C@@H](NC(=O)[C@H](CCC(=O)O)NC(=O)[C@H](CCC(=O)O)NC(C)=O)C(C)C)C(C)C` had a pKi of 4.34.

Take `C=CCNC(=O)C(=O)[C@H](CCC)NC(=O)[C@@H]1CN(Cc2ccccc2)C(=O)N1C(=O)[C@@H](NC(=O)[C@@H](NC(=O)[C@H](CCC(=O)O)NC(=O)[C@H](CCC(=O)O)NC(C)=O)C(C)C)C(C)C`: the negative logarithm of the Ki (pKi) is 6.00. Against the preceding compound, the pKi is 1.66 log units higher.
